According to patent publication US11241385B2, “Topical composition and method for treating and preventing atopic dermatitis and infections related to bacteria biofilm” (Johnson & Johnson Consumer Inc., priority 2017, dated 2022):

Assays:
[1] = test system: Staphylococcus aureus biofilms; experiment: Biofilm growth, crystal violet method; assay type: cell-based, Staphylococcus Aureus MFP03; details: S. aureus, absorbance 550 nm
Experimental: 1.3.2 Biofilm Growth, Crystal Violet Method
Experiments on biofilm growth were performed according to the protocol disclosed in G. A. O'Toole, Microtiter Dish Biofilm Formation Assay, J Vis Exp. 2011; (47): 2437. The protocol disclosed by G. A. O'Toole teaches the assay on Pseudomonas aeruginosa, it was adapted to Staphylococcus Aureus MFP03 and Staphylococcus Epidermis MFP04.
Two conditions were studied: • The effect of the emulsions on biofilms in formation: the emulsions are added to the medium from the beginning of the bacterial growth. • The effect of emulsions on established biofilms: the emulsions are added to the bacteria after a first 24-hour incubation that allowed the development of the biofilm.
The protocol taught by G. A. O'Toole is as follows:
1. Grow a culture of the wild-type Pseudomonas aeruginosa or mutant strain overnight in a rich medium (i.e. LB)
2. […] For quantitative assays, we typically use 4-8 replicate wells for each treatment. […] Quantifying the Biofilm 1. […] Quantify absorbance in a plate reader at 550 nm using 30% acetic acid in water as the blank. For the conditions of biofilms in formation: emulsions at 10% (w/w) are added to the medium, and after 24 h of incubation, the optical density is measured. […] Optical density is then measured. Results are expressed in percentage of absorbance relative to the control sample, which is the biofilm itself. […]

[2] = test system: Staphylococcus aureus biofilms; experiment: Biofilm growth inhibition, wells method (inhibition halos); assay type: cell-based; details: S. Aureus
Experimental: (§1) 1.3.3 Biofilm Growth Inhibition, Wells Method.
(§2) Protocol disclosed by Hui Zhang was adapted as follow: • a—100 μL of a bacterial strains culture (DO580=0.5) is spread on a LB culture plate. • b—5 mm diameter wells are created with a punch in the gel surface of the culture plate. Each well is attributed to one formulation, the same formulation throughout the test. • c—50 μL of tested formulation is injected per well. • d—24 hours incubation at 37° C. • e—Wells are emptied from the formulations. • f—Growth inhibition halos are measured. • g—Repeat from step c to obtain data over several days (8 days in the present case).
(§3) Tests were conducted on biofilms according to the methodology disclosed on paragraph 1.3.3 (Wells). A 10% solution of Triton X-100 (Aldrich) was submitted to the same test, results after 2 days were used as references.
(§4) Inhibition halos were measured and compared to the inhibition halo obtained for the Triton X-100 solution after 2 days. Inhibition halo differences are expressed in %. Over 100% the inhibition is higher than what is observed for Triton at 2 days; under 100% the inhibition is lower than what is observed for Triton at 2 days. Inhibition was measured at 2 days and 8 days.

[3] = test system: Staphylococcus Epidermidis biofilms; experiment: as above; assay type: cell-based; details: S. Epidermidis
Experimental: as §1, §2, §3, §4

## Triton X-100
[1]; after 24 h biofilm growth medium replaced for 4 hours by emulsion
  Absorbance percentage relative to the control (the biofilm itself), established biofilm: 177%
[1]; emulsion at 10% (w/w) in medium from start, 24 h incubation
  Absorbance percentage relative to the control (the biofilm itself), biofilm in formation: 27%
[2]; 2 days
  Growth inhibition % (halo), relative to Triton X-100 at 2 days: 100%
[2]; 8 days
  Growth inhibition % (halo), relative to Triton X-100 at 2 days: 198.5%
[3]; 2 days
  Growth inhibition % (halo), relative to Triton X-100 at 2 days: 100%
[3]; 8 days
  Growth inhibition % (halo), relative to Triton X-100 at 2 days: 231%
